Data taken from patent US12606552B2, “Bifunctional compound, preparation method therefor, and use thereof” (SUZHOU KINTOR PHARMACEUTICALS, INC., priority 2020, dated 2026).

Test: Distribution of compounds in sebaceous glands and blood in golden hamsters
Assay type: in vivo
Details: for mean drug concentration in sebaceous glands: after 8 h
Method: Activity Assay Example 9: Distribution of Compounds in Sebaceous Glands and Blood in Golden Hamsters
6 male golden hamsters were selected for the experiment and divided into two groups (three in each group). The drug was administered by a single smear route. All animals fasted overnight before administration.
1.1 Experimental Method 1.1.1 Dosage of Administration
A46 was weighed into a 50 ml centrifuge tube, added with mixed solvent (75% ethanol, 15% glyceryl tri(2-ethylhexanoate) and 10% glycerol), vortexed and heated at 60° C. until A46 was completely dissolved. A46 was prepared at a concentration of 30 mg/mL, 100 mg/mL, and stored at room temperature in the dark.
In group 1, the dosage for smear administration was 1.2 mg, corresponding to an administration volume of 30 mL/kg. In group 2, the dosage for smear administration was 4 mg, and the administration volume was 100 mL/kg.
1.1.2 Method of Administration
During the experiment, the 2 sebaceous glands of all the hamsters were coated with the corresponding medicinal solution (the dosage was about 0.02 mL).
1.1.3 Observation of Animal Status
Immediately after administration, whether the animals have abnormal reactions was observed. If there were no abnormal reactions, the animals were observed twice during the experiment. If any abnormal reactions were found, the number of observations was recorded and increased in time until the animals returned to normal, or the experiment ended.
1.1.4 Sample Collection and Storage
All experimental animals were fasted overnight before administration, and blood was collected at corresponding time points into blood collection tubes containing heparin sodium anticoagulant after administration. After collection of whole blood, the blood collection tube was immediately shook gently and placed on ice, then centrifuged (4° C., 4000 rpm, 10 min) to collect the supernatant plasma sample (plasma volume ≥100 μL), and the supernatant plasma sample was stored at −80° C. before analysis. Plasma sample was collected for 8 h.

## Cc1ncsc1-c1ccc(CNC(=O)[C@@H]2C[C@@H](O)CN2C(=O)[C@@H](NC(=O)COCCCCOc2ccc(-c3ccc(N4C(=S)N(c5ccc(C#N)c(C(F)(F)F)c5F)C(=O)C4(C)C)cn3)cc2)C(C)(C)C)cc1 [Compound A46]
Group 1, single smear 1.2 mg (30 mg/mL)
  mean drug concentration in sebaceous glands: 13513 ng/mL
Group 2, single smear 4 mg (100 mg/mL)
  mean drug concentration in sebaceous glands: 24223 ng/mL
Group 2, single smear 4 mg (100 mg/mL), one out of 3 animals, sampling 0.25-8 h
  maximum blood concentration: 10.6 ng/mL
Group 2, single smear 4 mg (100 mg/mL), remaining 2 animals, sampling 0.25-8 h
  blood concentration (below the detection limit): < 2 ng/mL
